What all share (format): cell-based
For test [1], the system named is Micrococcus luteus (ATCC9341). The settings on record: susceptible strain, NCCLS guidelines. On the procedure: (§1) According to the NCCLS guidelines for susceptibility test of novel antimicrobial compounds, we found a broad spectrum of activity of Cat1 (Methods for Dilution Antimicrobial Susceptibility Tests for Bacteria That Grow Aerobically; Approved Standard-Fifth Edition. NCCLS document M7-A5 (ISBN1-56238-394-9)).
(§2) In another campaign, the specific MICs of Cat1 were determined against a variety of microbial strains relevant for wound infections. As recommended in the above-mentioned NCCLS protocol, the strains were grown in cationic adjusted Muller-Hinton Broth. The highest concentration tested was 32 μg/ml.
The antimicrobial activity of the polypeptides of the invention was analyzed using the Microdilution Broth Assay (see Example 1) with Mueller Hinton Broth (MHB) media. Four different bacterial strains were tested in this setup; Micrococcus luteus (ATCC 9341), Pseudomonas aeruginosa (ATCC 27853), Escherichia coli (ATCC 10536) and Klebsiella pneumoniae (DSM681). The amino acid sequence of the polypeptides and the Minimal Inhibitory concentrations (MIC, microgram/ml) obtained is presented in Table 7 below.

The subject of test [2] is Salmonella choleraesuis (DSM9220).
Source text: as §1

The subject of test [3] is Acinetobacter baumanii ATCC 49137. On the procedure: as §1, §2
Test [4] has as its system Aerococcus viridans ATCC 700406. The method, then:
as §1, §2

In test [5] the test system is Bordetella bronchiseptica ATCC 14064. The method, then:
as §1, §2

The test system of test [6] is Citrobacter freundii ATCC 11811. On the procedure: as §1, §2
Test [7] deals with Escherichia coli ATCC 25922. On the procedure:
as §1, §2

The subject of test [8] is Klebsiella pneumoniae ATCC 29995. The method, then: as §1, §2
In test [9] the test system is Morganella morganii ATCC 21116. The method, then:
as §1, §2

Test [10] relates to Staphylococcus aureus (MSSA) ATCC 25923. The method, then:
as §1, §2

The subject of test [11] is Staphylococcus epidermidis ATCC 12228. The method, then: as §1, §2
Test [12] relates to Staphyloloccus aureus GISA ATCC 700699. On the procedure: as §1, §2
The subject of test [13] is Stenotrophomonas maltophilia ATCC 12714. On the procedure: as §1, §2
The subject of test [14] is Streptococcus agalactiae ATCC 624. The method, then:
as §1, §2

Test [15] has as its system Streptococcus pneumoniae ATCC 10015. On the procedure: as §1, §2
Test [16] deals with Streptotoccus pyogenes ATCC 4543. On the procedure:
as §1, §2

Where no end group is shown, it is not given here. Where only a bound is given, the exact number is not on record here.

Consider “GLLRRLRKKIGKKLKKIGQKIKPIRILVP [SEQ ID NO: 3]”, for which the minimum inhibitory concentration (MIC) (commonly the least concentration at which growth counts as inhibited) was < 64 µg/mL in [1]; < 64 µg/mL in test [2]; 8 µg/mL in test [3]; 0.5 µg/mL in test [4]; 0.5 µg/mL in test [5]; 1.5 µg/mL in test [6]. Moreover, the MIC in test [7] worked out at 1.5 µg/mL; in test [8], 8 µg/mL; in test [9], 1.5 µg/mL; in test [10], 32 µg/mL; in test [11], 4 µg/mL; in [12], 32 µg/mL. Also, the minimal inhibitory concentration (MIC) amounted to 1 µg/mL in [13], 16 µg/mL in [14], 8 µg/mL in [15] and 1.5 µg/mL in test [16].
